“Also recorded” adds a separate entry of the source.
Legend:
PSD95 = experiment: Western blot of PSD95 in hippocampus of J20 mice; format: in vivo; settings: J20 mice treated for 10 weeks
Method: (§1) Results were compared with those obtained from age-matched negative littermates (controls). To test the effect of the PDE5 inhibitors in cognition capacity related to aging, a second treatment was carried out using 10-12 month-old non-transgenic (wild type) mice on an inbred C57/B6xSJL genetic background.
(§2) Twenty four hours after the fear conditioning test, animals (n=5, per group) were sacrificed and the brains removed for biochemical studies. The cortex and hippocampus were dissected, homogenized, and processed as described below for subsequent western blot analysis. […]
(§3) Total tissue homogenates were obtained by homogenizing the hippocampus in a cold lysis buffer with protease inhibitors (0.2 M NaCl, 0.1 M HEPES, 10% glycerol, 200 mM NaF, 2 mM Na4P2O7, 5 mM EDTA, 1 mM EGTA, 2 mM DTT, 0.5 mM PMSF, 1 mM Na3VO4, 1 mM benzamidine, 10 µg/ml leupeptin, 400 U/ml aprotinin), centrifuged at 14,000 x g 4 °C for 20 minutes and the supernatant was aliquoted and stored at -80 °C. Total protein concentrations were determined using the BioRad Bradford protein assay (BioRad Laboratories).
(§4) Protein samples were mixed with an equal volume of 2 x Laemmli sample buffer, resolved onto SDS-polyacrylamide gels and transferred to nitrocellulose membrane. […] Quantity OneTM software v.4.6.3 (Bio-Rad) was used for quantification.

[1] = Kulkarni and Patil 2004; Forgue et al., 2006; cited from earlier work
synaptophysin = experiment: Western blot of synaptophysin in hippocampus of J20 mice; format: in vivo; settings: J20 mice treated for 10 weeks
Method: as §1, §2, §3, §4

J20 mouse model of AD = experiment: Morris water maze in J20 mouse model of AD; format: in vivo, mice; settings: for escape latencies in the hidden platform phase: 4-week treatment, 15 mg/kg/day orally, 20 month old J20 mice, data not shown; for MWM performance, escape latencies in the invisible platform phase / percentage of time spent in the right quadrant (memory retention): 10 weeks of treatment; for MWM performance, escape latencies in the invisible platform phase: 15 mg/Kg orally once daily, 21-22 month-old J20 mice, vs saline; for percentage of time spent in the right quadrant (memory retention): platform removed, days 7 and 9, 15 mg/Kg, J20 mice, randomness = 25%
Method: Transgenic mice overexpressing human amyloid precursor protein (hAPP) with the Swedish (K670N/M671L) and Indiana (V717F) familial AD mutations under control of the PDGF β-chain promoter were used (J20 line) (Mucke et al, 2000). The mice were on an inbred C57BL/6J genetic background. […] Results were compared with those obtained from age-matched negative littermates (controls). To test the effect of the PDE5 inhibitors in cognition capacity related to aging, a second treatment was carried out using 10-12 month-old non-transgenic (wild type) mice on an inbred C57/B6xSJL genetic background. […] The MWM test was used to evaluate spatial memory as previously described (Hsiao et al., 1996; Reed et al., 2010; Ricobaraza et al., 2009). After treatments, groups of animals underwent spatial reference learning and memory testing in the MWM. The water maze was a circular pool (diameter 1.2 m) filled with water maintained at 20 °C and made opaque by the addition of non-toxic white paint. Mice were trained for three consecutive days (8 trials/day) swimming to a raised platform (visible-platform). No distal visible cues were present during this phase. The same platform location was used for all visible-platform sessions and was changed for the invisible-platform training (submerged 1 cm beneath the surface) conducted over […] (4 trials/day) with all visible distal cues present in this phase. In both visible- and hidden-platform versions, mice were placed pseudo-randomly in selected locations, facing toward the wall of the pool to eliminate the potentially confounding contribution of extramaze spatial cues. Each trial was terminated when the mouse reached the platform or after 60 seconds, whichever came first. To test the retention, three probe trials were performed at the beginning of 4th, 7th, and the last day of the test (day 9). In the probe trials the platform was removed from the pool, and the percentage of time spent in the quadrant where the platform was previously set was recorded. All trials were monitored by a camera above the center of the pool connected to a SMART-LD program (Panlab S.L., Barcelona, Spain) for subsequent analysis of escape latencies, swimming speed, path length and percent time spent in each quadrant of the pool during probe trials. All experimental procedures were performed blind to groups.

gerbils = settings: Ko et al. (2009); cited from earlier work
[2] = quoted from WO2010/074783, page 109; cited from earlier work
[3] = system: maternal-separated rat pups; settings: Baek et al. (2011); cited from earlier work
[4] = EMEA scientific discussion for Cialis (WC500026314); cited from earlier work
[5] = system: central nervous system (CNS) function; settings: doses ≤100 mg/kg orally; EMEA assessment report for Adcirca (WC500069602); cited from earlier work

Row | Compound | expression levels of PSD95 (PSD95) | half-life in blood serum [1] [h] | expression levels of synaptophysin (synaptophysin) | escape latencies in the hidden platform phase (J20 mouse model of AD) | MWM performance, escape latencies in the invisible platform phase (J20 mouse model of AD) | percentage of time spent in the right quadrant (memory retention) (J20 mouse model of AD) | short-term memory (gerbils) | ability to cross the BBB [2] | depressive symptoms, memory impairment, apoptosis and cell proliferation in the hippocampus [3] | observed in the central nervous system [4] | effects on central nervous system (CNS) function [5] | MWM performance, escape latencies in the invisible platform phase (J20 mouse model of AD; 15 mg/kg)
1 | CCCc1nn(C)c2c(=O)[nH]c(-c3cc(S(=O)(=O)N4CCN(C)CC4)ccc3OCC)nc12 [sildenafil] | recovered the low expression levels | 3.4 | recovered the low expression levels | no significant differences were detected | markedly improves the performance | higher than 25% |  |  |  |  |  | 
2 | CN1CC(=O)N2[C@H](c3ccc4c(c3)OCO4)c3[nH]c4ccccc4c3C[C@@H]2C1=O [tadalafil, (6R-trans)-6-(1,3-benzodioxol-5-yl)-2,3,6,7,12,12a-hexahydro-2-methyl-pyrazino [1',2':1,6] pyrido [3,4-b]indole-1,4-dione] | recovered the low expression levels | 18 | recovered the low expression levels | no significant differences were detected |  | higher than 25% | improves short-term memory | unable to cross the BBB | improves depressive symptoms, ameliorates memory impairment, as well as suppresses apoptosis and enhances cell proliferation | not observed | no effects | even better than those of non-transgenic mice; also recorded: cognitive improvement was higher in the group of tadalafil than in the group of sildenafil; also recorded: markedly improves the performance
